The target in test [1] is T1, AxDTA; D-threonine aldolase from Alcaligenes xylosoxidans (Achromobacter xylosoxidans, UniProt A0A0J9X243).
T1 construct: full-length, residues 1-379, cloned from genomic DNA into pET101/D-TOPO with native TGA stop (degenerate reverse primer), no tag; E. coli BL21 Star (DE3); treated by reductive lysine methylation before crystallisation (no methylation seen in density); residues 1-6 (A) and 1-7 (B) disordered; dimer in crystal
T1 sequence (A0A0J9X243 1-379): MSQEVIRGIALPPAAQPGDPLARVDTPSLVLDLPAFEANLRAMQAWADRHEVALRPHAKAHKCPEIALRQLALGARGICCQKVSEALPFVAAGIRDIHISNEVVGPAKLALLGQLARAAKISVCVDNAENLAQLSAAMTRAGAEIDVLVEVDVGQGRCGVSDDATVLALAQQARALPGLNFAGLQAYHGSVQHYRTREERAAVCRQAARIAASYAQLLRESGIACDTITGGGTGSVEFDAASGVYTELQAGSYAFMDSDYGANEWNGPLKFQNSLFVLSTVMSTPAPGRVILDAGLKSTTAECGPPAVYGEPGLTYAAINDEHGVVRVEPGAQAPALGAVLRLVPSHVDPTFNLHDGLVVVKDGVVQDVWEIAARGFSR
Nature of the test: X-ray crystallography, […] Å. Particulars: active site; two alternate conformations: covalent (internal aldimine with Lys59, ~40% occupancy) and non-covalent (~60%); Mn2+ nearby; crystals at pH 8.1. Type of test: binding.

The target in test [2] is D-threonine aldolase from Alcaligenes xylosoxidans (Alcaligenes xylosoxidans IFO 12669). Nature of the test: crystal structure; X-ray, 1.5 Å, space group P2(1), two molecules per asymmetric unit; crystals from 200 mM sodium chloride, 100 mM Tris/HCl pH 8.1, 13% (w/v) PEG-3350.

As to `Cc1ncc(COP(=O)(O)O)c(C=O)c1O` [PLP, pyridoxal phosphate], in test [1], the “X-ray crystallography, 1.5 Å” value is on record as “modeled by a molecule of pyridoxal phosphate (PLP) in two alternate conformations: covalently linked to Lys59”.
In test [2], “D-threonine aldolase from Alcaligenes xylosoxidans (enzyme)” registered a stoichiometry N of 2.

For orientation: stoichiometry N means the number of molecules, sites or subunits per partner or assembly.

For the origin of these results see PMC4401734, “The Crystal Structure of D-Threonine Aldolase from Alcaligenes xylosoxidans Provides Insight into a Metal Ion Assisted PLP-Dependent Mechanism” (PLoS ONE, 2015).
